Among the test systems are ACHN renal; M14 melanoma; MOLT-4 leukemia; OVCAR-4 ovarian; OVCAR-8 ovarian; RPMI-8226 leukemia; SF-268 CNS; T-47D breast; TK-10 renal; UO-31 renal.
What all share (assay): NCI tumour cell line growth inhibition, 48 h

Among the data in PubChem BioAssay (NCI) are TGI and GI50 values, retold here.

Several values for one entry are separate records, joined by “and”; a condition that tells them apart may be missing. Equal values may be shown once.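 Growth conditions: 96-well plates. Treatment: test compound, 48 hours, 5 concentrations. Analysis: linear interpolation between bracketing concentrations; unreached endpoints set to highest concentration. GI50 = concentration required for 50% inhibition of growth. TGI marks complete inhibition of growth.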

For `Cc1ccccc1C(=O)C#Cc1cn(C2CC(O)C(CO)O2)c(=O)[nH]c1=O` (stereo not drawn), the TGI in the test on ACHN renal is over 100 µM; with M14 melanoma, over 100 µM; in the test with MOLT-4 leukemia, 92.5 µM; with OVCAR-4 ovarian, over 100 µM; in the test with OVCAR-8 ovarian it was over 100 µM; in the test with RPMI-8226 leukemia it was over 100 µM. In addition, the TGI in the test on SF-268 CNS, with T-47D breast, in the test with TK-10 renal and in the test with UO-31 renal was over 100 µM throughout.
For `NCCCC(=O)Nc1ccncc1`, the GI50 in the test with ACHN renal, in the test with M14 melanoma, in the test on MOLT-4 leukemia, with OVCAR-4 ovarian, in the test on OVCAR-8 ovarian and with RPMI-8226 leukemia was over 100 µM throughout. Besides, the GI50 in the test on SF-268 CNS, in the test with T-47D breast, in the test on TK-10 renal and in the test on UO-31 renal was over 100 µM each time. The TGI in the test on ACHN renal, in the test on M14 melanoma, in the test on MOLT-4 leukemia, in the test on OVCAR-4 ovarian, in the test on OVCAR-8 ovarian and in the test on RPMI-8226 leukemia was over 100 µM each time. The TGI in the test with SF-268 CNS, with T-47D breast, in the test with TK-10 renal and in the test with UO-31 renal was over 100 µM in each case.
For the molecule `CC1(C)COCN1COC1CCCCC1`, the TGI with ACHN renal is over 100 µM; in the test with M14 melanoma, over 100 µM; in the test on MOLT-4 leukemia it was 83.9 µM; in the test on OVCAR-4 ovarian, over 100 µM; in the test with OVCAR-8 ovarian, over 100 µM; with RPMI-8226 leukemia it was over 100 µM. The TGI with SF-268 CNS, in the test with T-47D breast, in the test with TK-10 renal and with UO-31 renal was over 100 µM each time.
On to `N#CC1=C(N)OC2=C(COc3ccc(F)cc32)C1c1ccc(Cl)cc1` (stereo not drawn), for which the GI50 was 22.9 µM in the test with ACHN renal; 44.6 µM in the test with M14 melanoma; 44.7 µM in the test with MOLT-4 leukemia; 78.3 µM in the test on OVCAR-4 ovarian; 51.1 µM with OVCAR-8 ovarian; 26.6 µM in the test on RPMI-8226 leukemia. Also, the GI50 was 42.8 µM in the test on SF-268 CNS, over 100 µM in the test with T-47D breast, 43.1 µM in the test on TK-10 renal and 48.5 µM with UO-31 renal. Also, the TGI with ACHN renal is 93.5 µM; in the test on M14 melanoma it was over 100 µM; in the test with MOLT-4 leukemia, over 100 µM; with OVCAR-4 ovarian, over 100 µM; with OVCAR-8 ovarian, over 100 µM; with RPMI-8226 leukemia, over 100 µM. Moreover, the TGI in the test on SF-268 CNS, with T-47D breast, in the test on TK-10 renal and with UO-31 renal was over 100 µM each time.
In the case of `CN(C)NC1=NS(=O)(=O)c2cc3c(cc2S1)N(N(C)C)C(=O)c1cc2c(cc1N(N(C)C)C3=O)SC(NN(C)C)=NS2(=O)=O`, the TGI in the test with ACHN renal, with M14 melanoma, with MOLT-4 leukemia, in the test on OVCAR-4 ovarian, in the test with OVCAR-8 ovarian and in the test with RPMI-8226 leukemia was over 10 µM each time. Also, the TGI with SF-268 CNS, in the test on T-47D breast, in the test with TK-10 renal and in the test on UO-31 renal was over 10 µM each time.
`O=C1/C(=C/c2ccc(O)c([N+](=O)[O-])c2)CCC/C1=C\c1ccc(O)c([N+](=O)[O-])c1`: the GI50 is 20.4 µM with ACHN renal; 14.6 µM in the test with M14 melanoma; 17.4 µM in the test on MOLT-4 leukemia; 4.34 µM in the test with OVCAR-4 ovarian; 16 µM in the test on OVCAR-8 ovarian; 10 µM with RPMI-8226 leukemia. Besides, the GI50 in the test with TK-10 renal is 38.8 µM; with UO-31 renal it was 20.7 µM. For the same molecule, the TGI is 14.8 µM and 38.5 µM in the test on ACHN renal; 31.8 µM and 29.7 µM in the test on M14 melanoma; 50 µM and 47 µM with MOLT-4 leukemia; 50 µM and > 100 µM in the test on OVCAR-4 ovarian; 50 µM and 34.7 µM in the test on OVCAR-8 ovarian; 50 µM and 32.6 µM in the test on RPMI-8226 leukemia. The TGI was 19.9 µM in the test on SF-268 CNS; 47.5 µM in the test with T-47D breast; 50 µM and > 100 µM in the test on TK-10 renal; 25.5 µM and 39.5 µM in the test with UO-31 renal.
Consider `Nc1nc2cc(CNc3ccc(C(=O)O)cc3)ccc2nc1-c1ccccc1`, for which the TGI in the test with ACHN renal, in the test with M14 melanoma, with MOLT-4 leukemia, in the test with OVCAR-4 ovarian, with OVCAR-8 ovarian and in the test on RPMI-8226 leukemia was over 100 µM each time. Further, the TGI in the test with SF-268 CNS, with T-47D breast, in the test with TK-10 renal and in the test with UO-31 renal was over 100 µM throughout.
Regarding `OC(C1=C/C(=C\c2ccncc2)c2ccccc21)c1ccncc1` (stereo not drawn), the TGI in the test with ACHN renal was 53.4 µM; in the test on M14 melanoma, 27.8 µM; in the test with MOLT-4 leukemia, 23.9 µM; in the test on OVCAR-4 ovarian, over 57.6 µM; with OVCAR-8 ovarian, over 100 µM; in the test with RPMI-8226 leukemia, 22.4 µM. Besides, the TGI in the test on SF-268 CNS stood at 57.3 µM; with T-47D breast, 33.7 µM; in the test with TK-10 renal, 32.3 µM; with UO-31 renal it was 28.2 µM.
Turning to `O=C(NC1CC1)c1ccc(-c2nc3ccc4[nH]ncc4c3c3c2CCCC3)cc1`, the GI50 with ACHN renal was 1.03 µM; with M14 melanoma it was 2.33 µM; with MOLT-4 leukemia, 1.75 µM; with OVCAR-4 ovarian it was 4.62 µM; in the test with OVCAR-8 ovarian, 2.34 µM; with RPMI-8226 leukemia, 1.08 µM. In addition, the GI50 in the test with SF-268 CNS was 1.87 µM; in the test with T-47D breast, 1.62 µM; in the test with TK-10 renal it was 0.991 µM; in the test with UO-31 renal it was 1.84 µM. Also, the TGI is over 50 µM in the test with ACHN renal; 10.4 µM with M14 melanoma; 20.1 µM in the test on MOLT-4 leukemia; over 50 µM with OVCAR-4 ovarian; over 50 µM in the test on OVCAR-8 ovarian; 12 µM in the test with RPMI-8226 leukemia. Also, the TGI with SF-268 CNS was 14 µM; with T-47D breast, 15.4 µM; in the test with TK-10 renal, 25.6 µM; in the test on UO-31 renal, 13.5 µM.
On to `CN(C)CCCN=C(N)N`, for which the TGI in the test on ACHN renal, in the test on M14 melanoma, in the test with MOLT-4 leukemia, with OVCAR-4 ovarian, with OVCAR-8 ovarian and in the test with RPMI-8226 leukemia was over 100 µM each time. Moreover, the TGI with SF-268 CNS, with T-47D breast, in the test with TK-10 renal and in the test on UO-31 renal was over 100 µM each time.
